Consider four molecules from ChEMBL document CHEMBL1151783 (Bioorg Med Chem Lett, 2008).

pEC50, pIC50, pKd: −log10 of the molar value. In brackets after ≈: the same amount, converted by molar mass. Activity calls are given as the source filed them. No cut-off for these calls is given here. Bounds are passed on as bounds.

Data set [1] is described as follows: Binding affinity to bovine tubulin after 2 hrs by fluorescence polarization assay. Also noted: species or system Bos taurus. For orientation: Fluorescence polarisation rises when a labelled molecule tumbles more slowly, as on binding a larger partner.
For data set [2], the species on record is Bos taurus. The data set is described as follows: Binding affinity to bovine tubulin at 10 uM after 2 hrs by fluorescence polarization assay.
A short description of data set [3]: Displacement of [3H]colchicine from bovine tubulin after 2 hrs by fluorescence polarization assay. Further details: species or system Bos taurus. For orientation: In a radioligand displacement assay an active substance lowers the binding of a labelled ligand.
Data set [4] is filed under the species Bos taurus. Briefly: Inhibition of bovine tubulin polymerization at 5 uM.
A further data set deals with HeLa. The data set is described as follows: Cytotoxicity against human HeLa cells after 48 hrs by luminescence cell viability assay. It is filed as functional, cell-based.
In the next data set the test system is HepG2. The data set is described as follows: Cytotoxicity against human HepG2 cells after 48 hrs by luminescence cell viability assay. In kind it is functional, cell-based. The settings on record: HepG2, 48 h.
The next data set relates to Raji. Briefly: Cytotoxicity against human Raji cells after 48 hrs by luminescence cell viability assay. It is filed as functional, cell-based.
The test system of data set [5] is Vero. Briefly: Cytotoxicity against african green monkey Vero cells after 48 hrs by luminescence cell viability assay. As to conditions: Chlorocebus sabaeus. In kind it is cell-based.
Data set [6] can be described thus: Membrane permeability by PAMPA. It is filed as ADME. The settings on record: for Papp: read-out: permeability. (In general: PAMPA measures passive passage across an artificial lipid membrane.)
The nature of data set [7]: Solubility in phosphate buffer saline after 2 hrs. It is filed as physicochemical. The settings on record: phosphate buffered saline.
In data set [8] the test system is Vero. The data set is described as follows: Induction of apoptosis in african green monkey Vero cells assessed as caspase 3/7 activity after 18 hrs […]. It is filed as functional, cell-based. As to conditions: Chlorocebus sabaeus.
Data set [9] has as its system Vero. The data set is described as follows: Cell cycle arrest in african green monkey Vero cells assessed as accumulation at G2/M phase after 18 hrs by flow cytometry using propidium iodide staining. It is filed as functional, cell-based. The settings on record: Chlorocebus sabaeus.
The species entered for data set [10] is Bos taurus. The data set is described as follows: Inhibition of bovine tubulin polymerization at 10 uM.

The term pKd denotes the Kd on a negative log10 scale, so that one unit is a factor of ten. In general, pIC50 refers to the IC50 on a negative log10 scale, so that one unit is a factor of ten. The pEC50 is −log10 of the EC50, conventionally taken in molar units. One may read the solubility as the concentration that dissolves in the medium under given conditions. In the case of `COc1cc2c(c(OC)c1OC)-c1ccc(OC)c(=O)cc1[C@@H](NC(=O)CCC1=[N+]3C(=Cc4cccn4[B-]3(F)F)C=C1)CC2`, the pKd in [1] was 5.24. In addition, the outcome in the data set filed under Bos taurus [2] and in the data set listed under Bos taurus [4] was Active. The molecule further showed a pIC50 in data set [3] of 5.41. For the same molecule, the pEC50 in the data set on HeLa was 6.44; in the data set with HepG2 it was 6.74; in the data set with Raji it was 6.86; in the data set with Vero [5] it was 5.64; with Vero [8], 5.59; in the data set on Vero [9], 6.02. For the same molecule, in data set [6], the Papp was 108 ×10⁻⁶ cm/s. In data set [7], this molecule had a solubility at 2 h of 32 µM (≈ 19.3 µg/mL).

Turning to `CC(=O)O[C@H]1C(=O)[C@@]2(C)[C@H]([C@H](OC(=O)c3ccccc3)[C@]3(O)C[C@H](OC(=O)[C@H](O)[C@@H](NC(=O)c4ccccc4)c4ccccc4)C(C)=C1C3(C)C)[C@]1(OC(C)=O)CO[C@@H]1C[C@@H]2O`, in the data set listed under Bos taurus [10], the outcome was inactive.

As to `COc1cc2c(c(OC)c1OC)-c1ccc(OC)c(=O)cc1[C@@H](NC(C)=O)CC2` [COLCHICINE], the result in the data set filed under Bos taurus [4] was Active. The molecule also showed a permeability in [6] of 415 ×10⁻⁶ cm/s. Also, in data set [7], the solubility at 2 h was above 250 µM.

Molecule `COc1cc2c(c(OC)c1OC)-c1ccc(OC)c(=O)cc1[C@@H](NC(=O)CCCCCNC(=O)COc1ccc(/C=C/C3=[N+]4C(=Cc5ccc(-c6ccc[nH]6)n5[B-]4(F)F)C=C3)cc1)CC2` had a pKd in data set [1] of 5.12. This molecule showed a pIC50 in data set [3] of 5.19. For the same molecule, the outcome in the data set filed under Bos taurus [4] was Active. For the same molecule, the pEC50 in the data set with HeLa is 5.72; with HepG2 it was 5.92; in the data set on Raji, 6.19; in the data set with Vero [5], below 5.00; with Vero [8], 4.98; in the data set on Vero [9] it was 5.17. Also, the Papp in data set [6] is below 10 ×10⁻⁶ cm/s. The molecule further had a solubility at 2 h in data set [7] below 10 µM.
